Measurements as given in ChEMBL document CHEMBL1143236, “Design, synthesis, FGF-1 binding, and molecular modeling studies of conformationally flexible heparin mimetic disaccharides” (Bioorg Med Chem Lett, 2008).

The compounds below were run against Fibroblast growth factor 1 (Homo sapiens, UniProt P05230) (assay: Binding affinity at FGF1).
Chain of Fibroblast growth factor 1 (P05230 whole entry): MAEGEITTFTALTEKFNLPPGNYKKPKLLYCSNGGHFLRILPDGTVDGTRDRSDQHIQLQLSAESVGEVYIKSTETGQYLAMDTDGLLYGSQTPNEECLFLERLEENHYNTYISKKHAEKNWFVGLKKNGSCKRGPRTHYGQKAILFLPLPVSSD

Structure (SMILES) | Kd
COC[C@H]1O[C@H](O[C@H]2[C@H](OS(=O)(=O)O)[C@@H](OS(=O)(=O)O)[C@H](OC)O[C@@H]2COS(=O)(=O)O)[C@H](OS(=O)(=O)O)[C@@H](OC)[C@H]1OC | 233 µM
CO[C@@H]1O[C@H](COS(=O)(=O)O)[C@@H](O[C@H]2O[C@H](COS(=O)(=O)O)[C@H](OC)[C@H](OC)[C@H]2OS(=O)(=O)O)[C@H](OS(=O)(=O)O)[C@H]1OS(=O)(=O)O | 47.9 µM
CO[C@@H]1O[C@H](COS(=O)(=O)O)[C@@H](O[C@H]2O[C@H](CO)[C@H](O)[C@H](O)[C@H]2OS(=O)(=O)O)[C@H](OS(=O)(=O)O)[C@H]1OS(=O)(=O)O | 77.5 µM
CO[C@@H]1OC[C@@H](O[C@H]2O[C@H](CO)[C@H](O)[C@H](O)[C@H]2OS(=O)(=O)O)[C@H](OS(=O)(=O)O)[C@H]1OS(=O)(=O)O | 1400 µM
CO[C@@H]1O[C@H](COS(=O)(=O)O)[C@@H](O[C@H]2O[C@H](COS(=O)(=O)O)[C@H](O)[C@H](O)[C@H]2OS(=O)(=O)O)[C@H](OS(=O)(=O)O)[C@H]1OS(=O)(=O)O | 21.8 µM
